Reference: publication PMC12090182, “Repurposing of the RIPK1-Selective Benzo[1,4]oxazepin-4-one Scaffold for the Development of a Type III LIMK1/2 Inhibitor” (ACS Chemical Biology, 2025)

Key:
Experiment in all cases: scanMAX KINOMEscan (Eurofins)
Type in all cases: binding
BMPR2 = BMPR2 (Homo sapiens, UniProt Q13873); details: read-out: Percent Control
Excerpt: (§1) Supplement cb5c00097_si_002.xlsx, sheet "Table S6 (Eurofins Selectivity)" | column: Percent Control

BRSK2 = BRSK2 (Homo sapiens, UniProt Q8IWQ3); details: read-out: Percent Control
Sequence of BRSK2 (Q8IWQ3 whole entry): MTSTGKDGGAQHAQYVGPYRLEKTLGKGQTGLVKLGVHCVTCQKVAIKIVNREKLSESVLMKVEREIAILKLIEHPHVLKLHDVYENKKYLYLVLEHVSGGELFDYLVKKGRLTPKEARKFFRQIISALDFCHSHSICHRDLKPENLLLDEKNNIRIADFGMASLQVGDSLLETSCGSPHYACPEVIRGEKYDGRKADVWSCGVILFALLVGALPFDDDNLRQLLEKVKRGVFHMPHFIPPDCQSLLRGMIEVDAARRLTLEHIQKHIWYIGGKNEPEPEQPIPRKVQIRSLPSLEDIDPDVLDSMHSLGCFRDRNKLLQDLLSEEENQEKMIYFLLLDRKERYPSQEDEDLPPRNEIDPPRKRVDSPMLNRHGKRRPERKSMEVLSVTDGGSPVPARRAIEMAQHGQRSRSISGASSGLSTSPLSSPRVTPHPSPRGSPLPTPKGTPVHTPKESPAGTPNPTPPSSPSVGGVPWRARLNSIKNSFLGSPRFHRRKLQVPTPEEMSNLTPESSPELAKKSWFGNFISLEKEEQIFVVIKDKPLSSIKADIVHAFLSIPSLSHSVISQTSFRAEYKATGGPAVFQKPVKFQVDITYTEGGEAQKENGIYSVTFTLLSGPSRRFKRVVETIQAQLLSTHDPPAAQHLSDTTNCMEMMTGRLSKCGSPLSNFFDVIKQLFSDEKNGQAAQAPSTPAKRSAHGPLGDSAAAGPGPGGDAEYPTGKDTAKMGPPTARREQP
Excerpt: as §1

CDC2L5 = CDC2L5 (Homo sapiens, UniProt Q14004); details: read-out: Percent Control
Sequence of CDC2L5 (Q14004 whole entry): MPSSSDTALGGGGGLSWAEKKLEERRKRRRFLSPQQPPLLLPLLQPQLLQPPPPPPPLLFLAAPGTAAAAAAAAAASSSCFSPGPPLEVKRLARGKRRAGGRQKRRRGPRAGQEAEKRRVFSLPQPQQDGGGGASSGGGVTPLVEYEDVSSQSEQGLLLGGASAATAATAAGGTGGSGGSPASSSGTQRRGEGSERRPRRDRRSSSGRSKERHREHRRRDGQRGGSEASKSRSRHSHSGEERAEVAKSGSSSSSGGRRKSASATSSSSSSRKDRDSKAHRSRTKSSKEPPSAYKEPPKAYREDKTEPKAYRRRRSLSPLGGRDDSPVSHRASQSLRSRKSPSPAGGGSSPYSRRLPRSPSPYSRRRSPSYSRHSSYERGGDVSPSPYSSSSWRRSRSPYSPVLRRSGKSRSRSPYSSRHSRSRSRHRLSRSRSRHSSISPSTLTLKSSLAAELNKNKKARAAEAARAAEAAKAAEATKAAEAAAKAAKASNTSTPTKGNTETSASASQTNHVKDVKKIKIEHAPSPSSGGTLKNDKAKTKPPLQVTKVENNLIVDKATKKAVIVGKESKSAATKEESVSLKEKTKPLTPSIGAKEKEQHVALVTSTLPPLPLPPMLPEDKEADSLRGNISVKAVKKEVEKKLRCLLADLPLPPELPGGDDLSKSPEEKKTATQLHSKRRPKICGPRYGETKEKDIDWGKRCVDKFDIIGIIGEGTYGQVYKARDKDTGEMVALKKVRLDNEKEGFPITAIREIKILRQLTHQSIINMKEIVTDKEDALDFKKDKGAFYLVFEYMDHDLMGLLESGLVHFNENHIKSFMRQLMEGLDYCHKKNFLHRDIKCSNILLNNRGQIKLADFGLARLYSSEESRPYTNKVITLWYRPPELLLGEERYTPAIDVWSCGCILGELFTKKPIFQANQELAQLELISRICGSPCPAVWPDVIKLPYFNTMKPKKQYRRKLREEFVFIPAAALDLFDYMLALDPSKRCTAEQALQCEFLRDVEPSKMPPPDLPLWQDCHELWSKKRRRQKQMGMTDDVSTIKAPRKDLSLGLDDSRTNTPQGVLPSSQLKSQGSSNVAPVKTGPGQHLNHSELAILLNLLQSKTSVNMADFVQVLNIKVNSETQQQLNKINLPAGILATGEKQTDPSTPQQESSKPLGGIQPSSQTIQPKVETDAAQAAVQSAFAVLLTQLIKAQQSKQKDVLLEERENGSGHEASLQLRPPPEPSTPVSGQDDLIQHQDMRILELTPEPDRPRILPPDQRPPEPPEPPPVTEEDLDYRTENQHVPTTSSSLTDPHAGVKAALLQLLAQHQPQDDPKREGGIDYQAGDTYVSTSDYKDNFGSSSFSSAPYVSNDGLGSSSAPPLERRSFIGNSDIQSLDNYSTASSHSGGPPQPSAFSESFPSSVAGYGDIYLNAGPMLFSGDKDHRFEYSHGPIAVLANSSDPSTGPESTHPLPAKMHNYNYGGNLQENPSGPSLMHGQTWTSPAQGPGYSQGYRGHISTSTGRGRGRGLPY
Excerpt: as §1

CDK4 = CDK4 (Homo sapiens, UniProt P11802); details: 1000 nM, read-out: Percent Control
Excerpt: as §1

CDKL5 = CDKL5 (Homo sapiens, UniProt O76039); details: read-out: Percent Control
Sequence of CDKL5 (O76039 whole entry): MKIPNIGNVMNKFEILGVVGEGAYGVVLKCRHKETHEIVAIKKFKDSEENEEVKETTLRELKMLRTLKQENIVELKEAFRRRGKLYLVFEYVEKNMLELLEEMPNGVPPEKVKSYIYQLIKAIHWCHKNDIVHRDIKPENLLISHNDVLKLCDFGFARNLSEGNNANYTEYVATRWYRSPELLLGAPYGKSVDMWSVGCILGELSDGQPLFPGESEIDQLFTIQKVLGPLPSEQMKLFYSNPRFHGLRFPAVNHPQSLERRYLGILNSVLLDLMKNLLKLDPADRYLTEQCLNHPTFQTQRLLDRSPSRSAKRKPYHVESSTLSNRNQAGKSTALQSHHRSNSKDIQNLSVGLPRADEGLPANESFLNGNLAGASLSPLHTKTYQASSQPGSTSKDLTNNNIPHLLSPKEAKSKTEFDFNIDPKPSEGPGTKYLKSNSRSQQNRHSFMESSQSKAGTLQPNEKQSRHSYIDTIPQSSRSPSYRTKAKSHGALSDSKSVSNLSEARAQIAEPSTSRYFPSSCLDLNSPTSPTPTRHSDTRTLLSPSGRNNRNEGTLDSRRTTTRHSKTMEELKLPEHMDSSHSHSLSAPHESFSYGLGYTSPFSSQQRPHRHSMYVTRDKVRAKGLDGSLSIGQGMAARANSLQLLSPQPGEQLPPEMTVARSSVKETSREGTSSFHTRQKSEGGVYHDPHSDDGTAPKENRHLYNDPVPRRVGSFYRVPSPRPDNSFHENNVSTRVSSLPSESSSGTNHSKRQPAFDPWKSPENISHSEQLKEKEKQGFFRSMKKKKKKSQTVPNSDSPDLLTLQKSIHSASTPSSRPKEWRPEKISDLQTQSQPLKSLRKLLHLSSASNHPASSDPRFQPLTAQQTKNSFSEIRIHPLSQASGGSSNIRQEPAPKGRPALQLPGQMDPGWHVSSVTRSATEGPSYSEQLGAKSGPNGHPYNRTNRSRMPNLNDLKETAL
Excerpt: as §1

CHEK2 = CHEK2 (Homo sapiens, UniProt O96017); details: read-out: Percent Control
Sequence of CHEK2 (O96017 whole entry): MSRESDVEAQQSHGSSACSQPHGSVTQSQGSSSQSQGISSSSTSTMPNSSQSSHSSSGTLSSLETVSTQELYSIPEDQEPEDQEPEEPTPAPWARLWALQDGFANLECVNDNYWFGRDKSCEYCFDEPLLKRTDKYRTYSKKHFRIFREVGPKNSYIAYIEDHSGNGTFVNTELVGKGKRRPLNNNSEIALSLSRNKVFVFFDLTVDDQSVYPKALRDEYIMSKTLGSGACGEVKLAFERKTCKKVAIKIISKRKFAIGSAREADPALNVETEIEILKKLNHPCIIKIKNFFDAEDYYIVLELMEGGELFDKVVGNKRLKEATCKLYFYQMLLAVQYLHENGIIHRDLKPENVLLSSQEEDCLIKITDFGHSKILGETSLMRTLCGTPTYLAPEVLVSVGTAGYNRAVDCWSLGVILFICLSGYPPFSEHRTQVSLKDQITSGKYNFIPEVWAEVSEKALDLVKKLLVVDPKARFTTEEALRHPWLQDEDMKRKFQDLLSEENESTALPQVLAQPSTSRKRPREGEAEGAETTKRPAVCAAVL
Excerpt: as §1

FAK = FAK (Homo sapiens, UniProt Q05397); details: 1000 nM, read-out: Percent Control
Excerpt: as §1

FLT3 = FLT3 (Homo sapiens, UniProt P36888); details: read-out: Percent Control
Sequence of FLT3 (P36888 27-993): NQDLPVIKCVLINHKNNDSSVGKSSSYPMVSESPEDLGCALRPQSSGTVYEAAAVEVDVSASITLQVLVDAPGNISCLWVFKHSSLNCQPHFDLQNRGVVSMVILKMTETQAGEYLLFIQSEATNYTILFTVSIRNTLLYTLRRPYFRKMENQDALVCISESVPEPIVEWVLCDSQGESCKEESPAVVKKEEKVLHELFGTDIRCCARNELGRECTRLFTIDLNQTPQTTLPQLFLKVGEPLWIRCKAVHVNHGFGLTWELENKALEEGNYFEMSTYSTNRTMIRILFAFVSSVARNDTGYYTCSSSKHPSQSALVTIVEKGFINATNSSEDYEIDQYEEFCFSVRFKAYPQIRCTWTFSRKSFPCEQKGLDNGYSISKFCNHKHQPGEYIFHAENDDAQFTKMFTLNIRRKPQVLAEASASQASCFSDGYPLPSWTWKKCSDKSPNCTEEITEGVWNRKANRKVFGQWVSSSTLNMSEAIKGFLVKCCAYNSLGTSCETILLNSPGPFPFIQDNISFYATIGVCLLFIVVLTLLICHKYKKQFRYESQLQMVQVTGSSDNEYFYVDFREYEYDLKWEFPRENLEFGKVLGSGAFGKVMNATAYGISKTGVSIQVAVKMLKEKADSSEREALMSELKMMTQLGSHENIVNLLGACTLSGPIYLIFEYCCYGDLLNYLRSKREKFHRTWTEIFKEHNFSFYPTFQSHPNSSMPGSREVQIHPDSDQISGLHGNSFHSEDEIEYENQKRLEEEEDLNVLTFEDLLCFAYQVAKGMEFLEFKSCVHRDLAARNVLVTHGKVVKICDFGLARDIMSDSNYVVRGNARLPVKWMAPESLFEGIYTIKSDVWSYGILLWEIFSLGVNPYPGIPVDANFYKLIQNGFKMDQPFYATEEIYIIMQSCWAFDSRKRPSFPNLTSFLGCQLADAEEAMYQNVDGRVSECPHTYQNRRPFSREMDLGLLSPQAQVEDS
Excerpt: as §1

GRK3 = GRK3 (Homo sapiens, UniProt P35626); details: 1000 nM, read-out: Percent Control
Excerpt: as §1

HIPK1 = HIPK1 (Homo sapiens, UniProt Q86Z02); details: 1000 nM, read-out: Percent Control
Excerpt: as §1

INSRR = INSRR (Homo sapiens, UniProt P14616); details: 1000 nM, read-out: Percent Control
Excerpt: as §1

KIT = KIT (Homo sapiens, UniProt P10721); details: 1000 nM, read-out: Percent Control
Excerpt: as §1

MLCK = MLCK (Homo sapiens, UniProt Q32MK0); details: 1000 nM, read-out: Percent Control
Excerpt: as §1

MYLK2 = MYLK2 (Homo sapiens, UniProt Q9H1R3); details: 1000 nM, read-out: Percent Control
Excerpt: as §1

PAK2 = PAK2 (Homo sapiens, UniProt Q13177); details: 1000 nM, read-out: Percent Control
Excerpt: as §1

PCTK2 = PCTK2 (Homo sapiens, UniProt Q00537); details: 1000 nM, read-out: Percent Control
Excerpt: as §1

PIK3C2G = PIK3C2G (Homo sapiens, UniProt O75747); details: 1000 nM, read-out: Percent Control
Excerpt: as §1

PIK3CB = PIK3CB (Homo sapiens, UniProt P42338); details: 1000 nM, read-out: Percent Control
Excerpt: as §1

PIP5K2C = PIP5K2C (Homo sapiens, UniProt Q8TBX8); details: 1000 nM, read-out: Percent Control
Excerpt: as §1

PLK3 = PLK3 (Homo sapiens, UniProt Q9H4B4); details: compound concentration 100 nM; Entrez PLK3; read-out: Percent Control
Excerpt: as §1

RIPK5 = RIPK5 (Homo sapiens, UniProt Q6XUX3); details: compound concentration 100 nM; Entrez DSTYK; read-out: Percent Control
Excerpt: as §1

[1] = molecular target: RSK1(Kin.Dom.2-C-terminal) (Homo sapiens, UniProt Q15418); details: compound concentration 100 nM; Entrez RPS6KA1; read-out: Percent Control
Excerpt: as §1

[2] = molecular target: RSK3(Kin.Dom.2-C-terminal) (Homo sapiens, UniProt Q15349); details: compound concentration 100 nM; Entrez RPS6KA2; read-out: Percent Control
Excerpt: as §1

SGK = SGK (Homo sapiens, UniProt O00141); details: compound concentration 100 nM; Entrez SGK1; read-out: Percent Control
Excerpt: as §1

SIK2 = SIK2 (Homo sapiens, UniProt Q9H0K1); details: compound concentration 100 nM; Entrez SIK2; read-out: Percent Control
Excerpt: as §1

STK16 = STK16 (Homo sapiens, UniProt O75716); details: compound concentration 100 nM; Entrez STK16; read-out: Percent Control
Excerpt: as §1

STK36 = STK36 (Homo sapiens, UniProt Q9NRP7); details: 1000 nM, read-out: Percent Control
Excerpt: as §1

TAOK1 = TAOK1 (Homo sapiens, UniProt Q7L7X3); details: compound concentration 100 nM; Entrez TAOK1; read-out: Percent Control
Excerpt: as §1

TESK1 = TESK1 (Homo sapiens, UniProt Q15569); details: 1000 nM, read-out: Percent Control
Excerpt: as §1

TGFBR2 = TGFBR2 (Homo sapiens, UniProt P37173); details: compound concentration 100 nM; Entrez TGFBR2; read-out: Percent Control
Excerpt: as §1

[3] = molecular target: TYK2(JH1domain-catalytic) (Homo sapiens, UniProt P29597); details: 1000 nM, read-out: Percent Control
Sequence of TYK2(JH1domain-catalytic) (P29597 888-1187): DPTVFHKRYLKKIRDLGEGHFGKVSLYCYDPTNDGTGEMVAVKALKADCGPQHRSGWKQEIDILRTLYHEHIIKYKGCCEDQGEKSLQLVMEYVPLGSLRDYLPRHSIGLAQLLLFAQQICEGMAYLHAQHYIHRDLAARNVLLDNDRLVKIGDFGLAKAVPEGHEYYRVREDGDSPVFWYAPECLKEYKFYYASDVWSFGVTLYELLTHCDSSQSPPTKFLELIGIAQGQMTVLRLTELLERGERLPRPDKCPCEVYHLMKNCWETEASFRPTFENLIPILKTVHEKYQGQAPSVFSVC
Excerpt: as §1

ULK2 = ULK2 (Homo sapiens, UniProt Q8IYT8); details: compound concentration 100 nM; Entrez ULK2; read-out: Percent Control
Excerpt: as §1

WNK1 = WNK1 (Homo sapiens, UniProt Q9H4A3); details: compound concentration 100 nM; Entrez WNK1; read-out: Percent Control
Excerpt: as §1

YES = YES (Homo sapiens, UniProt P07947); details: 1000 nM, read-out: Percent Control
Excerpt: as §1

YSK1 = YSK1 (Homo sapiens, UniProt O00506); details: compound concentration 100 nM; Entrez STK25; read-out: Percent Control
Excerpt: as §1

Compound `CN1C(=O)[C@@H](N2CCc3c(nn(Cc4ccccc4)c3C(N)=O)C2=O)COc2cc(Cl)ccc21` [Compound 10, (S)-2-benzyl-6-(8-chloro-5-methyl-4-oxo-2,3,4,5-tetrahydrobenzo[b][1,4]oxazepin-3-yl)-7-oxo-4,5,6,7-tetrahydro-2H-pyrazolo[3,4-c]pyridine-3-carboxamide] has a remaining binding at 1 µM (BMPR2; 1000 nM) of 100%, a remaining binding at 0.1 µM (BMPR2; compound concentration 100 nM, Entrez BMPR2) of 90% and a remaining binding at 1 µM (BRSK2; 1000 nM) of 100%. It also gave a remaining binding at 0.1 µM (BRSK2; compound concentration 100 nM, Entrez BRSK2) of 85%, a remaining binding at 1 µM (CDC2L5; 1000 nM) of 100% and a remaining binding at 0.1 µM (CDC2L5; compound concentration 100 nM, Entrez CDK13) of 100%. The remaining binding at 1 µM (CDK4) was 76%, the remaining binding at 1 µM (CDKL5; 1000 nM) was 100% and the remaining binding at 0.1 µM (CDKL5; compound concentration 100 nM, Entrez CDKL5) was 100%. The remaining binding at 1 µM (CHEK2; 1000 nM) was 100%, the remaining binding at 0.1 µM (CHEK2; compound concentration 100 nM, Entrez CHEK2) was 100% and the remaining binding at 1 µM (FAK) was 90%. It also gave a remaining binding at 1 µM (FLT3; 1000 nM) of 100%, a remaining binding at 0.1 µM (FLT3; compound concentration 100 nM, Entrez FLT3) of 96% and a remaining binding at 1 µM (GRK3) of 71%. It also gave a remaining binding at 1 µM (HIPK1) of 93%, a remaining binding at 1 µM (INSRR) of 76% and a remaining binding at 1 µM (KIT) of 89%. The remaining binding at 1 µM (MLCK) was 93%, the remaining binding at 1 µM (MYLK2) was 84% and the remaining binding at 1 µM (PAK2) was 67%. For the same compound, the remaining binding at 1 µM (PCTK2) was 90%, the remaining binding at 1 µM (PIK3C2G) was 84% and the remaining binding at 1 µM (PIK3CB) was 88%. It also gave a remaining binding at 1 µM (PIP5K2C) of 92%, a remaining binding at 0.1 µM (PLK3) of 86% and a remaining binding at 0.1 µM (RIPK5) of 91%. For the same compound, the remaining binding at 0.1 µM [1] was 97%, the remaining binding at 0.1 µM [2] was 100% and the remaining binding at 0.1 µM (SGK) was 98%. The remaining binding at 0.1 µM (SIK2) was 71%, the remaining binding at 0.1 µM (STK16) was 80% and the remaining binding at 1 µM (STK36) was 80%. The remaining binding at 0.1 µM (TAOK1) was 100%, the remaining binding at 1 µM (TESK1) was 79% and the remaining binding at 0.1 µM (TGFBR2) was 100%. It also gave a remaining binding at 1 µM [3] of 74%, a remaining binding at 0.1 µM (ULK2) of 80% and a remaining binding at 0.1 µM (WNK1) of 92%. It also gave a remaining binding at 1 µM (YES) of 90% and a remaining binding at 0.1 µM (YSK1) of 97%.
